# Patent publication US10294202B2, “Pyrrolidinones as herbicides” (FMC Corporation, priority 2013, dated 2019)
# Assays:
# bromegrass, downy = experiment: Test C pre-/postemergence herbicide test; format: in vivo, Bromus tectorum; conditions: Preemergence
# Outline: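 Compound solutions contained surfactant in a non-phytotoxic solvent. These were sprayed onto pots of loam/sand sown with seeds, and onto young plants (2 to 18 cm, 1- to 4-leaf) in sphagnum peat–vermiculite mix. Visual injury scores (0 none, 100 complete control) were recorded after 13 to 15 days.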
# corn = experiment: Test E preemergence herbicide test; format: in vivo, Zea mays; design: key: 0 = no effect, 100 = complete control
# Description: (§1) Seeds of plant species selected from corn (Zea mays), soybean (Glycine max), velvetleaf (Abutilon theophrasti), lambsquarters (Chenopodium album), wild poinsettia (Euphorbia heterophylla), pigweed, palmer (palmer pigweed, Amaranthus palmeri), waterhemp (common waterhemp, Amaranthus rudis), surinam grass (Brachiaria decumbens), crabgrass, large (large crabgrass, Digitaria sanguinalis), crabgrass, Brazil (Brazilian crabgrass, Digitaria horizontalis), panicum, fall (fall panicum, Panicum dichotomiflorum), foxtail, giant (giant foxtail, Setaria faberii), foxtail, green (green foxtail, Setaria viridis), goosegrass (Eleusine indica), johnsongrass (Sorghum halepense), ragweed (common ragweed, Ambrosia elatior), barnyardgrass (Echinochloa crus-galli), sandbur (southern sandbur, Cenchrus echinatus), arrowleaf […] rhombifolia), ryegrass, Italian (Italian ryegrass, Lolium multiflorum), dayflower, VA (Virginia dayflower, Commelina virginica), field bindweed (Convolvulus arvensis), morningglory (Ipomoea coccinea), nightshade (eastern black nightshade, Solanum ptycanthum), kochia (Kochia scoparia), nutsedge, yellow (yellow nutsedge, Cyperus esculentus), cocklebur (common cocklebur, Xanthium strumarium), smartweed (ladysthumb smartweed, Polygonum Persicaria) and beggarticks (hairy beggarticks, Bidens pilosa), were planted into a silt loam soil and treated preemergence with test chemicals formulated in a non-phytotoxic solvent mixture which included a surfactant. Treated plants and controls were maintained in a greenhouse for 21 days, after which time all species were compared to controls and visually evaluated. Plant response ratings, summarized in Table E, are based on a scale of 0 to 100 where 0 is no effect and 100 is complete control. A dash (-) response means no test result.
# wild poinsettia = experiment: Test E preemergence herbicide test; format: in vivo, Euphorbia heterophylla; design: key: 0 = no effect, 100 = complete control
# Description: as §1
# nightshade = experiment: Test E preemergence herbicide test; format: in vivo, Solanum ptycanthum; design: key: 0 = no effect, 100 = complete control
# Description: as §1
# field poppy = experiment: Test D pre-/postemergence herbicide test; format: in vivo, Papaver rhoeas; conditions: for Plant response rating: Field Poppy, scale 0 to 100; for Plant response rating, Field Poppy: scale 0 to 100 (0 no effect, 100 complete control)
# Outline: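 Greenhouse pre- and postemergence screen with surfactant-containing non-phytotoxic solvent formulations. Silt loam soil served for preemergence application, and peat/vermiculite medium for postemergence application at 2–18 cm height. Visual 0–100 control ratings versus controls were recorded 7 to 21 days later.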
# buckwheat, wild = experiment: Test D pre-/postemergence herbicide test; format: in vivo, Polygonum convolvulus; conditions: for Plant response rating: Buckwheat, Wild, scale 0 to 100; for Plant response rating, Buckwheat, Wild: scale 0 to 100 (0 no effect, 100 complete control)
# Description: Seeds of plant species selected from bluegrass (annual bluegrass, Poa annua), blackgrass (Alopecurus myosuroides), canarygrass (littleseed canarygrass, Phalaris minor), chickweed (common chickweed, Stellaria media), galium (catchweed bedstraw, Galium aparine), bromegrass, downy (downy bromegrass, Bromus tectorum), field poppy (Papaver rhoeas), field violet (Viola arvensis), foxtail, green (green foxtail, Setaria viridis), deadnettle (henbit deadnettle, Lamium amplexicaule), ryegrass, Italian (Italian ryegrass, Lolium multiflorum), kochia (Kochia scoparia), lambsquarters (Chenopodium album), oilseed rape (Brassica napus), pigweed (Amaranthus retroflexus), chamomile (scentless chamomile, Matricaria inodora), Russian thistle (Salsola kali), speedwell (bird's-eye speedwell, Veronica persica), barley, spring (spring barley, Hordeum vulgare), wheat, spring (spring wheat, Triticum aestivum), buckwheat, wild (wild buckwheat, Polygonum convolvulus), mustard, wild (wild mustard, Sinapis arvensis), oat, wild (wild oat, Avena fatua), radish, wild (wild radish, Raphanus raphanistrum), […]), barley, winter (winter barley, Hordeum vulgare), and wheat, winter (winter wheat, Triticum aestivum) were planted into a silt loam soil and treated preemergence with test chemicals formulated in a non-phytotoxic solvent mixture which included a surfactant. At the same time, these species were planted in pots containing Redi-Earth® planting medium (Scotts Company, 14111 Scottslawn Road, Marysville, Ohio 43041) comprising spaghnum peat moss, vermiculite, wetting agent and starter nutrients and treated with postemergence applications of the test chemicals formulated in the same manner. Plants ranged in height from 2 to 18 cm (1- to 4-leaf stage). Treated plants and controls were maintained in a controlled growth environment for 7 to 21 days after which time all species were compared to controls and visually evaluated. Plant response ratings, summarized in Table D, are based on a scale of 0 to 100 where 0 is no effect and 100 is complete control. A dash (-) response means no test result.
SMILES,"Plant response rating, Corn (corn; 16 g ai/ha)","Plant response rating, Corn (corn; 31 g ai/ha)","Plant response rating, Corn (corn; 62 g ai/ha)","Plant response rating, Corn (corn; 125 g ai/ha)","Plant response rating, Corn (corn; 250 g ai/ha)","Plant response rating, Poinsettia, Wild (wild poinsettia; 16 g ai/ha)","Plant response rating, Poinsettia, Wild (wild poinsettia; 31 g ai/ha)","Plant response rating, Poinsettia, Wild (wild poinsettia; 62 g ai/ha)","Plant response rating, Poinsettia, Wild (wild poinsettia; 125 g ai/ha)","Plant response rating, Poinsettia, Wild (wild poinsettia; 250 g ai/ha)","Plant response rating, Nightshade (nightshade; 31 g ai/ha)","Plant response rating, Nightshade (nightshade; 62 g ai/ha)","Plant response rating, Nightshade (nightshade; 125 g ai/ha)","Plant response rating, Nightshade (nightshade; 250 g ai/ha)","Plant response rating, Field Poppy (field poppy; Preemergence, 62 g ai/ha)","Plant response rating, Field Poppy (field poppy; Preemergence, 31 g ai/ha)","Plant response rating (field poppy; Preemergence, 250 g ai/ha)","Plant response rating, Buckwheat, Wild (buckwheat, wild; Preemergence, 62 g ai/ha)","Plant response rating, Buckwheat, Wild (buckwheat, wild; Preemergence, 31 g ai/ha)","Plant response rating (buckwheat, wild; Preemergence, 250 g ai/ha)",also measured
O=C1NCC(c2ccc(Cl)c(Cl)c2)C1C(=O)Nc1ccccc1F (racemic) [Compound 14],0,0,0,0,0,0,0,15,20,25,0,30,50,70,–,–,–,–,–,–,"Plant response rating, Bromegrass, Downy (bromegrass, downy; 62 g ai/ha, scale 0 to 100): 0; Plant response rating, Bromegrass, Downy (bromegrass, downy; 125 g ai/ha, scale 0 to 100 (0 no effect, 100 complete control)): 0; Bromegrass, Downy plant response rating (bromegrass, downy; 31 g ai/ha, scale 0 to 100 (0 no effect, 100 complete control)): 0; Plant response rating, Bromegrass, Downy (bromegrass, downy; 250 g ai/ha, scale 0 to 100 (0 no effect, 100 complete control)): 0; Plant response rating, Nightshade (nightshade; 16 g ai/ha): 0"
O=C1NCC(c2ccc(C(F)(F)F)cc2)C1C(=O)Nc1cccc(F)c1F (racemic) [Compound 202],–,0,0,40,60,–,0,0,25,65,0,50,90,80,85,85,100,10,0,15,"Plant response rating (field poppy; Postemergence, 31 g ai/ha): 0; Plant response rating (field poppy; Postemergence, 62 g ai/ha): 75; Plant response rating (field poppy; Postemergence, 125 g ai/ha): 100; Plant response rating (field poppy; Postemergence, 250 g ai/ha): 100; Plant response rating (field poppy; Preemergence, 125 g ai/ha): 90; Plant response rating (buckwheat, wild; Postemergence, 31 g ai/ha): 0; Plant response rating (buckwheat, wild; Postemergence, 62 g ai/ha): 0; Plant response rating (buckwheat, wild; Postemergence, 125 g ai/ha): 0; Plant response rating (buckwheat, wild; Postemergence, 250 g ai/ha): 10; Plant response rating (buckwheat, wild; Preemergence, 125 g ai/ha): 10"
O=C1NCC(c2ccc(OC(F)F)cc2)C1C(=O)Nc1cccc(F)c1F (racemic) [Compound 350],–,0,0,0,0,–,0,0,0,30,0,0,50,80,–,–,–,–,–,–,–
"O=C1NCC(c2ccc(C(F)(F)F)cc2)C1C(=O)Nc1cccc(F)c1F (stereo not drawn) [Compound 80, N-(2,3-difluorophenyl)-2-oxo-4-[4-(trifluoromethyl)phenyl]-3-pyrrolidinecarboxamide]",0,0,0,0,30,0,0,0,0,0,–,60,70,70,100,90,100,0,0,15,"Plant response rating (field poppy; Postemergence, 31 g ai/ha): 25; Plant response rating (field poppy; Postemergence, 62 g ai/ha): 55; Plant response rating (field poppy; Postemergence, 125 g ai/ha): 20; Plant response rating (field poppy; Postemergence, 250 g ai/ha): 50; Plant response rating (field poppy; Preemergence, 125 g ai/ha): 100; Plant response rating (buckwheat, wild; Postemergence, 31 g ai/ha): 0; Plant response rating (buckwheat, wild; Postemergence, 62 g ai/ha): 10; Plant response rating (buckwheat, wild; Postemergence, 125 g ai/ha): 0; Plant response rating (buckwheat, wild; Postemergence, 250 g ai/ha): 0; Plant response rating (buckwheat, wild; Preemergence, 125 g ai/ha): 5; Plant response rating, Nightshade (nightshade; 16 g ai/ha): 50"
"O=C1NC[C@H](c2cccc(C(F)(F)F)c2)[C@H]1C(=O)Nc1ccccc1F [Compound 204, (3R,4S)—N-(2-fluorophenyl)-2-oxo-4-[3-(trifluoromethyl)phenyl]-3-pyrrolidinecarboxamide]",–,0,0,0,40,–,0,0,20,20,0,20,100,100,85,75,95,25,20,25,"Plant response rating, Field Poppy (field poppy; Preemergence, 125 g ai/ha): 80; Plant response rating, Buckwheat, Wild (buckwheat, wild; Preemergence, 125 g ai/ha): 25"
O=C1NC[C@H](c2cccc(C(F)(F)F)c2)[C@H]1C(=O)Nc1cccc(F)c1F [Compound 206],–,0,50,40,70,–,0,10,0,25,0,0,5,10,90,80,95,65,45,55,"Plant response rating, Field Poppy (field poppy; Preemergence, 125 g ai/ha): 90; Plant response rating, Buckwheat, Wild (buckwheat, wild; Preemergence, 125 g ai/ha): 50"
